{"source": "patent US10441744B2", "about": "“Flushable catheter affixed to a wash line activated by a microfluidic pressure switch” (priority 2013, dated 2019)", "test_system": "cells attached to plastic surface", "test": "detachment and removal of cells from plastic surface by cleaning solutions", "assay_type": "cell-based", "description": "The first step with solution A: Solution A contains proteases. Proteases can be used to digest proteins attached to plastic surface. For example, trypsin can be used to release a cell layer from plastic dishes. An application of trypsin (pre-warmed at 37° C.) can lead the single cell layer to detach from the plastic bottom in a few minutes. When incubated at 30° C. (may be similar to the temperature of the part of catheters out of body), trypsin may detach heavy, multilayer cells from plastic surface in 30 min. Biofilm often contains multi-layers of cells can be digested and detach the layers of cells from plastic surface 30 min after trypsin incubation at 37° C.\nThe second step with solution B: While most of the cells may be detached by protease treatment (such as trypsin), a few cells may remain on the plastic surface, particularly when the incubation temperature is not at optimal digestive temperature (such as 37° C. for trypsin) as may happen for the part of catheters out of patients. Solution B may be used to continue the treatment for two purposes. Solution B contains high ion concentration that may reduce attachment of cell to plastic surface at room temperature. High ion concentration such as addition of 0.45M NaCl may also further reduce proteins binding to the surface (Ouyang et al., 1997). The second purpose is to deactivate remaining trypsin as a buffer without calcium and magnesium. […] Although it is not necessary to understand the mechanism of action of the current invention, it is believed that a higher concentration of saline solution (0.45M NaCl or above), similar to elution buffer for ion chromatography, helps to clean cells and/or proteins still attached to plastic due to charge of the ions.\nThe third step with solution C: After most of the bacterial and cells detach from plastic and wash away, 70% ethanol may be applied to kill possible bacterial remains and/or denature proteins still attached on the plastic surface. […]"}
{"substance": "trypsin", "values": [{"measurement": "time to detach heavy, multilayer cells from plastic surface", "setting": "incubated at 30° C.", "result": 30, "unit": "min"}, {"measurement": "time to digest and detach layers of cells (biofilm multi-layers) from plastic surface", "setting": "trypsin incubation at 37° C.", "result": 30, "unit": "min"}, {"measurement": "time for single cell layer to detach from the plastic bottom", "setting": "trypsin pre-warmed at 37° C.", "result": "a few minutes"}]}
